# Data reported in patent US12390441B2, “Immunomodulating o-het/aryl azalides” (Zoetis Services LLC, priority 2020, dated 2025).
# Marks after values point to notes of the source that are not given here.
# System: BRD pathogens, M. haemolytica and P. multocida
# Test: In-vitro MIC model, BRD pathogen screening panel
# Assay type: cell-based, Mannheimia haemolytica; Pasteurella multocida
# Details: at least one BRD strain
Compound,MIC flag at the example number (Table A),MIC flag at the example number (Table C),MIC flag at the example number (Table E)
CC[C@H]1OC(=O)[C@H](C)[C@@H](O[C@H]2C[C@@](C)(OC)[C@@H](O)[C@H](C)O2)[C@H](C)[C@@H](O[C@@H]2O[C@H](C)C[C@H](N(C)C)[C@H]2Oc2ccccc2C#N)[C@](C)(O)C[C@@H](C)CN(C)[C@H](C)[C@@H](O)[C@]1(C)O [Example A-3],A-3* (MIC ≤ 64 μg/mL for at least one BRD strain),–,–
CC[C@H]1OC(=O)[C@H](C)[C@@H](O[C@H]2C[C@@](C)(OC)[C@@H](O)[C@H](C)O2)[C@H](C)[C@@H](O[C@@H]2O[C@H](C)C[C@H](N(C)C)[C@H]2Oc2ccc(Cl)nc2)[C@](C)(O)C[C@@H](C)CN(C)[C@H](C)[C@@H](O)[C@]1(C)O [Example A-5],A-5* (MIC ≤ 64 μg/mL for at least one BRD strain),–,–
CC[C@H]1OC(=O)[C@H](C)[C@@H](O[C@H]2C[C@@](C)(OC)[C@@H](O)[C@H](C)O2)[C@H](C)[C@@H](O[C@@H]2O[C@H](C)C[C@H](N(C)C)[C@H]2Oc2cnc(OC)nc2)[C@](C)(O)C[C@@H](C)CN(C)[C@H](C)[C@@H](O)[C@]1(C)O [Example A-7],A-7* (MIC ≤ 64 μg/mL for at least one BRD strain),–,–
CC[C@H]1OC(=O)[C@H](C)[C@@H](O[C@H]2C[C@@](C)(OC)[C@@H](O)[C@H](C)O2)[C@H](C)[C@@H](O[C@@H]2O[C@H](C)C[C@H](NC)[C@H]2Oc2ccc3ncccc3c2)[C@](C)(O)C[C@@H](C)CN(C)[C@H](C)[C@@H](O)[C@]1(C)O [Example A-8],A-8* (MIC ≤ 64 μg/mL for at least one BRD strain),–,–
CC[C@H]1OC(=O)[C@H](C)[C@@H](O[C@H]2C[C@@](C)(OC)[C@@H](O)[C@H](C)O2)[C@H](C)[C@@H](O[C@@H]2O[C@H](C)C[C@H](N(C)C)[C@H]2Oc2ccccc2Cl)[C@](C)(O)C[C@@H](C)CN(C)[C@H](C)[C@@H](O)[C@]1(C)O [Example A-10],A-10* (MIC ≤ 64 μg/mL for at least one BRD strain),–,–
"CC[C@H]1OC(=O)[C@H](C)[C@@H](O[C@H]2C[C@@](C)(OC)[C@@H](O)[C@H](C)O2)[C@H](C)[C@@H](O[C@@H]2O[C@H](C)C[C@H](NC)[C@H]2Oc2cncc(C(F)(F)F)c2)[C@](C)(O)C[C@@H](C)CN(C)[C@H](C)[C@@H](O)[C@]1(C)O [Example A-13, (2R,3S,4R,5R,8R,10R,11R,12S,13S,14R)-2-ethyl-3,4,10-trihydroxy-13-(((2R,4R,5S,6S)-5-hydroxy-4-methoxy-4,6-dimethyltetrahydro-2H-pyran-2-yl)oxy)-3,5,6,8,10,12,14-heptamethyl-11-(((2S,3R,4S,6R)-6-methyl-4-(methylamino)-3-((5-(trifluoromethyl)pyridin-3-yl)oxy)tetrahydro-2H-pyran-2-yl)oxy)-1-oxa-6-azacyclopentadecan-15-one]",A-13* (MIC ≤ 64 μg/mL for at least one BRD strain),–,–
CC[C@H]1OC(=O)[C@H](C)[C@@H](O[C@H]2C[C@@](C)(OC)[C@@H](O)[C@H](C)O2)[C@H](C)[C@@H](O[C@@H]2O[C@H](C)C[C@H](NC)[C@H]2Oc2cc(F)ccc2OC)[C@](C)(O)C[C@@H](C)CN(C)[C@H](C)[C@@H](O)[C@]1(C)O [Example A-14],A-14* (MIC ≤ 64 μg/mL for at least one BRD strain),–,–
CC[C@H]1OC(=O)[C@H](C)[C@@H](O[C@H]2C[C@@](C)(OC)[C@@H](O)[C@H](C)O2)[C@H](C)[C@@H](O[C@@H]2O[C@H](C)C[C@H](NC)[C@H]2Oc2cnc(OC)nc2)[C@](C)(O)C[C@@H](C)CN(C)[C@H](C)[C@@H](O)[C@]1(C)O [Example A-15],A-15* (MIC ≤ 64 μg/mL for at least one BRD strain),–,–
CCOc1ccc(O[C@H]2[C@H](O[C@@H]3[C@@H](C)[C@H](O[C@H]4C[C@@](C)(OC)[C@@H](O)[C@H](C)O4)[C@@H](C)C(=O)O[C@H](CC)[C@@](C)(O)[C@H](O)[C@@H](C)N(C)C[C@H](C)C[C@@]3(C)O)O[C@H](C)C[C@@H]2NC)cc1 [Example A-17],A-17* (MIC ≤ 64 μg/mL for at least one BRD strain),–,–
CC[C@H]1OC(=O)[C@H](C)[C@@H](O[C@H]2C[C@@](C)(OC)[C@@H](O)[C@H](C)O2)[C@H](C)[C@@H](O[C@@H]2O[C@H](C)C[C@H](N(C)C)[C@H]2Oc2cccc(OC)c2)[C@](C)(O)C[C@@H](C)CN(C)[C@H](C)[C@@H](O)[C@]1(C)O [Example A-20],A-20* (MIC ≤ 64 μg/mL for at least one BRD strain),–,–
CC[C@H]1OC(=O)[C@H](C)[C@@H](O[C@H]2C[C@@](C)(OC)[C@@H](O)[C@H](C)O2)[C@H](C)[C@@H](O[C@@H]2O[C@H](C)C[C@H](NC)[C@H]2Oc2ccc(F)c(S(C)(=O)=O)c2)[C@](C)(O)C[C@@H](C)CN(C)[C@H](C)[C@@H](O)[C@]1(C)O [Example A-22],A-22* (MIC ≤ 64 μg/mL for at least one BRD strain),–,–
CC[C@H]1OC(=O)[C@H](C)[C@@H](O[C@H]2C[C@@](C)(OC)[C@@H](O)[C@H](C)O2)[C@H](C)[C@@H](O[C@@H]2O[C@H](C)C[C@H](N(C)C)[C@H]2Oc2ccc(OC)nc2C)[C@](C)(O)C[C@@H](C)CN(C)[C@H](C)[C@@H](O)[C@]1(C)O [Example A-38],A-38* (MIC ≤ 64 μg/mL for at least one BRD strain),–,–
CC[C@H]1OC(=O)[C@H](C)[C@@H](O[C@H]2C[C@@](C)(OC)[C@@H](O)[C@H](C)O2)[C@H](C)[C@@H](O[C@@H]2O[C@H](C)C[C@H](NC)[C@H]2Oc2ccc(OC)nc2OC)[C@](C)(O)C[C@@H](C)CN(C)[C@H](C)[C@@H](O)[C@]1(C)O [Example A-42],A-42* (MIC ≤ 64 μg/mL for at least one BRD strain),–,–
CC[C@H]1OC(=O)[C@H](C)[C@@H](O[C@H]2C[C@@](C)(OC)[C@@H](O)[C@H](C)O2)[C@H](C)[C@@H](O[C@@H]2O[C@H](C)C[C@H](N(C)C)[C@H]2Oc2ccc(OC)nc2OC)[C@](C)(O)C[C@@H](C)CN(C)[C@H](C)[C@@H](O)[C@]1(C)O [Example A-43],A-43* (MIC ≤ 64 μg/mL for at least one BRD strain),–,–
CC[C@H]1OC(=O)[C@H](C)[C@@H](O[C@H]2C[C@@](C)(OC)[C@@H](O)[C@H](C)O2)[C@H](C)[C@@H](O[C@@H]2O[C@H](C)C[C@H](N(C)C)[C@H]2Oc2ccccc2OC)[C@](C)(O)C[C@@H](C)CN(C)[C@H](C)[C@@H](O)[C@]1(C)O [Example A-46],A-46* (MIC ≤ 64 μg/mL for at least one BRD strain),–,–
CC[C@H]1OC(=O)[C@H](C)[C@@H](O[C@H]2C[C@@](C)(OC)[C@@H](O)[C@H](C)O2)[C@H](C)[C@@H](O[C@@H]2O[C@H](C)C[C@H](N(C)C)[C@H]2Oc2cc(OC)cc(OC)c2)[C@](C)(O)C[C@@H](C)CN(C)[C@H](C)[C@@H](O)[C@]1(C)O [Example A-48],A-48* (MIC ≤ 64 μg/mL for at least one BRD strain),–,–
CC[C@H]1OC(=O)[C@H](C)[C@@H](O)[C@H](C)[C@@H](O[C@@H]2O[C@H](C)C[C@H](N(C)C(=O)N(C)c3ccccc3)[C@H]2Oc2ccc3ncsc3c2)[C@](C)(O)C[C@@H](C)CN(C)[C@H](C)[C@@H](O)[C@]1(C)O [Example C-11],–,C-11* (MIC ≤ 64 μg/mL for at least one BRD strain),–
CCCNC[C@]1(O)[C@H](C)O[C@@H](O[C@H]2[C@H](C)[C@@H](O[C@@H]3O[C@H](C)C[C@H](NC)[C@H]3Oc3ccccc3OC(F)(F)F)[C@](C)(O)C[C@@H](C)CN[C@H](C)[C@@H](O)[C@](C)(O)[C@@H](CC)OC(=O)[C@@H]2C)C[C@@]1(C)OC [Example E-5],–,–,E-5* (MIC ≤ 64 μg/mL for at least one BRD strain)
CCCNC[C@]1(O)[C@H](C)O[C@@H](O[C@H]2[C@H](C)[C@@H](O[C@@H]3O[C@H](C)C[C@H](NC)[C@H]3Oc3ccccc3Cl)[C@](C)(O)C[C@@H](C)CN[C@H](C)[C@@H](O)[C@](C)(O)[C@@H](CC)OC(=O)[C@@H]2C)C[C@@]1(C)OC [Example E-14],–,–,E-14* (MIC ≤ 64 μg/mL for at least one BRD strain)
CCCNC[C@]1(O)[C@H](C)O[C@@H](O[C@H]2[C@H](C)[C@@H](O[C@@H]3O[C@H](C)C[C@H](NC)[C@H]3Oc3cc(F)cc(F)c3)[C@](C)(O)C[C@@H](C)CN[C@H](C)[C@@H](O)[C@](C)(O)[C@@H](CC)OC(=O)[C@@H]2C)C[C@@]1(C)OC [Example E-16],–,–,E-16* (MIC ≤ 64 μg/mL for at least one BRD strain)
CCCNC[C@]1(O)[C@H](C)O[C@@H](O[C@H]2[C@H](C)[C@@H](O[C@@H]3O[C@H](C)C[C@H](NC)[C@H]3Oc3cc(F)ccc3OC)[C@](C)(O)C[C@@H](C)CN[C@H](C)[C@@H](O)[C@](C)(O)[C@@H](CC)OC(=O)[C@@H]2C)C[C@@]1(C)OC [Example E-17],–,–,E-17* (MIC ≤ 64 μg/mL for at least one BRD strain)
CCCNC[C@]1(O)[C@H](C)O[C@@H](O[C@H]2[C@H](C)[C@@H](O[C@@H]3O[C@H](C)C[C@H](NC)[C@H]3Oc3cc(OC)ccc3F)[C@](C)(O)C[C@@H](C)CN[C@H](C)[C@@H](O)[C@](C)(O)[C@@H](CC)OC(=O)[C@@H]2C)C[C@@]1(C)OC [Example E-18],–,–,E-18* (MIC ≤ 64 μg/mL for at least one BRD strain)
CCCNC[C@]1(O)[C@H](C)O[C@@H](O[C@H]2[C@H](C)[C@@H](O[C@@H]3O[C@H](C)C[C@H](NC)[C@H]3Oc3cccc(Cl)c3)[C@](C)(O)C[C@@H](C)CN[C@H](C)[C@@H](O)[C@](C)(O)[C@@H](CC)OC(=O)[C@@H]2C)C[C@@]1(C)OC [Example E-21],–,–,E-21* (MIC ≤ 64 μg/mL for at least one BRD strain)
CCCNC[C@]1(O)[C@H](C)O[C@@H](O[C@H]2[C@H](C)[C@@H](O[C@@H]3O[C@H](C)C[C@H](NC)[C@H]3Oc3ccc(F)c(C)c3)[C@](C)(O)C[C@@H](C)CN[C@H](C)[C@@H](O)[C@](C)(O)[C@@H](CC)OC(=O)[C@@H]2C)C[C@@]1(C)OC [Example E-22],–,–,E-22* (MIC ≤ 64 μg/mL for at least one BRD strain)
CCCNC[C@]1(O)[C@H](C)O[C@@H](O[C@H]2[C@H](C)[C@@H](O[C@@H]3O[C@H](C)C[C@H](NC)[C@H]3Oc3ccc(F)cc3C)[C@](C)(O)C[C@@H](C)CN[C@H](C)[C@@H](O)[C@](C)(O)[C@@H](CC)OC(=O)[C@@H]2C)C[C@@]1(C)OC [Example E-23],–,–,E-23* (MIC ≤ 64 μg/mL for at least one BRD strain)
